Assay results published in patent US10590147B1, “Spirooxindole-pyrrolothiazole heterocyclic hybrids” (KING SAUD UNIVERSITY, priority 2019, dated 2020).
Values after ≈ are worked out from the molar mass of the structure shown. Values joined by “and” are separate entries in the source; they are usually repeats but may differ in a detail not shown here. Equal entries are not always repeated. “Also recorded” adds a separate entry of the source. Where two headings read alike, the source gives them in different places.

What was measured:
Type in all cases: cell-based
Escherichia coli [1] = experiment: MIC/MBC by two-fold dilution, microtiter 96 well plate method; details: E. coli (ATCC—25922), standard/control strain
Protocol: (§1) Compounds 6a and 6b were tested for their antimicrobial activity against both gram positive and gram negative drug-resistant bacteria. Minimum inhibitory concentration (MIC) and minimum bactericidal concentration (MBC) values for compounds 6a and 6b, as compared with a reference antibacterial drug (ampicillin), for Escherichia coli (EC), Pseudomonas aeruginosa (PS), Salmonella typhi (ST), Staphylococcus aureus (SA), and Staphylococcus epidermis (SE) are reported in Tables 2A and 2B.
(§2) The quantitative and qualitative screening of anti-bacterial activity of compounds 6a and 6b was conducted, the results being described above. Quantitative screening was determined by minimal inhibitory concentration (MIC) and minimal bactericidal concentration (MBC), while qualitative screening was accomplished by disc diffusion method. E. coli (ATCC—25922) and S. epidermis (ATCC 12228) were used as standard strains, and drug-resistant pathogens P. aeruginosa, S. typhi, and S. aureus were used to screen the antimicrobial activity. Gram negative bacteria were maintained on nutrient broth (NB)/agar plates (NA) and gram positive bacteria were maintained on trypticase soy broth (TSB)/agar plates (TSA). The compounds 6a and 6b concentration range was prepared by two-fold dilution in a sterile broth from the stock, using a microtiter 96 well plate method. Twelve dilutions of each compound, ranging from 7500 to 3.65 μg/ml, were tested, and Ampicillin was used as a positive control agent (with a range of 500 to 0.24 μg/ml).

Pseudomonas aeruginosa [2] = experiment: as above; details: drug-resistant P. aeruginosa
Protocol: as §1, §2

Salmonella typhi [3] = experiment: as above; details: drug-resistant S. typhi
Protocol: as §1, §2

Staphylococcus aureus [4] = experiment: as above; details: drug-resistant S. aureus
Protocol: as §1, §2

Staphylococcus epidermis [5] = experiment: as above; details: S. epidermis (ATCC 12228), standard/control strain
Protocol: as §1, §2

Pseudomonas aeruginosa [6] = experiment: Disc diffusion, zone of inhibition; design: key to Zone of inhibition (class): R: Resistant; details: drug-resistant P. aeruginosa; for Zone of inhibition: diameter: 37° C., 24h
Protocol: (§3) The qualitative screenings of antimicrobial activity were measured by plating in petri dishes to determine the formation of zones of inhibition for bacterial pathogens tested against compounds 6a, 6b and the standard antibiotic ampicillin.
as §2
(§4) The mid log bacterial inoculum was speeded on NA/TSA and the loaded disc was placed on agar plates and incubated at 37° C. for 24h. After this period, the inhibitions produced by the compounds around the disc were measured using antibiotic zone scale (Hi-Media, Mumbai, India) and zone of inhibitions were measured in mm.

Salmonella typhi [7] = experiment: Disc diffusion, zone of inhibition; design: key to Zone of inhibition (class): R: Resistant; details: drug-resistant S. typhi; for Zone of inhibition: diameter: 37° C., 24h
Protocol: as §3, §2, §4

Staphylococcus aureus [8] = experiment: Disc diffusion, zone of inhibition; design: key to Zone of inhibition (class): R: Resistant; details: drug-resistant S. aureus; for Zone of inhibition: diameter: 37° C., 24h
Protocol: as §3, §2, §4

Escherichia coli [9] = experiment: Disc diffusion, zone of inhibition; details: E. coli control strain; for Zone of inhibition: diameter: 37° C., 24h
Protocol: as §3, §2, §4

Staphylococcus epidermis [10] = experiment: Disc diffusion, zone of inhibition; details: S. epidermis control strain; for Zone of inhibition: diameter: 37° C., 24h
Protocol: as §3, §2, §4

P. aeruginosa = experiment: AO/EB live/dead bacterial double staining; details: P. aeruginosa treated at MIC, 4 hours; fluorescent microscope
Protocol: (§5) The acridine orange (AO) and ethidium bromide (EB) double staining method was used to analyse the Live/dead bacterial cells for untreated and compound 6a-treated S. aureus and P. aeruginosa cells. Both sets of cells, treated and untreated for each of the two bacteria, were stained with AO/EB for 15 minutes. The unbound dyes were removed by rinsing the cells twice with phosphate buffer saline (PBS). 10 μl samples of each were then placed on a glass slide with coverslip, and observed using a ZEISS inverted florescent microscope. The untreated gram positive (FIG. 6A) and gram negative (FIG. 6C) bacterial cells appeared green due to the presence of healthy, viable cells with intact/undamaged cell membranes and uniform chromatin. In contrast, the compound 6a-treated cells (treated gram positive in FIG. 6B, and treated gram negative in 6D) appeared red due to the resulting dents, blisters and damaged cell walls on bacterial cells, providing entry for the EB dye. Thus, the AO/EB double staining confirms the bactericidal action of compound 6a through cell wall and cell membrane damage.
(§6) Fluorescent dye stock solution was prepared by dissolving equal quantities of acridine orange (AO) and ethidium bromide (EB)—10 mg each—in 10 ml of PBS. The working solution was prepared by diluting 200 μl of stock solution into 10 ml of PBS. […]

S. aureus = experiment: AO/EB live/dead bacterial double staining; details: S. aureus treated at MIC, 4 hours; fluorescent microscope
Protocol: as §5, §6

`O=C1C(=Cc2ccc(F)cc2)CNCC12C(c1ccc(F)cc1)C1CSCN1C21C(=O)Nc2ccccc21` (stereo not drawn) [Compound 6a, spiro[5.3″ ]-oxindole-spiro-[6.2′]-6′-(4-fluorophenylmethylidene)tetrahydro-4′(1H)-pyridinone-7-(4-fluorophenyl)tetrahydro-1H-pyrrolo[1,2-c][1,3] thiazole] was tested, and the MBC (Escherichia coli [1]) was 29.25 µg/mL (≈ 55.2 µM), the MIC (Escherichia coli [1]) was 14.62 µg/mL (≈ 27.6 µM) and the MBC (Pseudomonas aeruginosa [2]) was 58.55 µg/mL (≈ 111 µM). It also gave an MIC (Pseudomonas aeruginosa [2]) of 29.25 µg/mL (≈ 55.2 µM), an MBC (Salmonella typhi [3]) of 58.55 µg/mL (≈ 111 µM) and an MIC (Salmonella typhi [3]) of 29.25 µg/mL (≈ 55.2 µM). For the same compound, the MBC (Staphylococcus aureus [4]) was 58.55 µg/mL (≈ 111 µM), the MIC (Staphylococcus aureus [4]) was 29.25 µg/mL (≈ 55.2 µM) and the MBC (Staphylococcus epidermis [5]) was 29.25 µg/mL (≈ 55.2 µM). For the same compound, the MIC (Staphylococcus epidermis [5]) was 14.62 µg/mL (≈ 27.6 µM), the “Zone of inhibition: diameter” value (Pseudomonas aeruginosa [6]; 60 μg/disc) was 19.3±0.81 mm and the “Zone of inhibition: diameter” value (Salmonella typhi [7]; 60 μg/disc) was 22.3±1.47 mm. The “Zone of inhibition: diameter” value (Staphylococcus aureus [8]; 60 μg/disc) was 26.3±0.81 mm, the “Zone of inhibition: diameter” value (Escherichia coli [9]; 60 μg/disc) was 27.3±1.08 mm and the “Zone of inhibition: diameter” value (Staphylococcus epidermis [10]; 60 μg/disc) was 31.3±1.08 mm and 31.3 mm. For the same compound, the “Live/dead AO/EB double staining appearance of treated cells” value (P. aeruginosa) was “dented, blistered and damaged cell walls; also recorded: appeared red” and the “Live/dead AO/EB double staining appearance of treated cells” value (S. aureus) was “dented, blistered and damaged cell walls; also recorded: appeared red”.
With `CC1(C)S[C@@H]2[C@H](NC(=O)[C@H](N)c3ccccc3)C(=O)N2[C@H]1C(=O)O` [Ampicillin, reference compound] the MBC (Escherichia coli [1]; Escherichia coli, read-out: MBC) was 7.81 µg/mL (≈ 22.4 µM), the MIC (Escherichia coli [1]; Escherichia coli, read-out: MIC) was 3.9 µg/mL (≈ 11.2 µM) and the MBC (Staphylococcus epidermis [5]; Staphylococcus, ATCC12228, read-out: MBC) was 7.81 µg/mL (≈ 22.4 µM). The MIC (Staphylococcus epidermis [5]; Staphylococcus, ATCC12228, read-out: MIC) was 3.9 µg/mL (≈ 11.2 µM), the “Zone of inhibition (class)” value (Pseudomonas aeruginosa [6]; 25 μg/disc) was “R” and the “Zone of inhibition (class)” value (Salmonella typhi [7]; 25 μg/disc) was “R”. The “Zone of inhibition (class)” value (Staphylococcus aureus [8]; 25 μg/disc) was “R”, the zone of inhibition at 25 µg/disc (Staphylococcus aureus [8]; Staphylococcus aureus, 25 μg/disc, read-out: Zone of inhibition: diameter) was less than 13 mm and the zone of inhibition at 25 µg/disc (Escherichia coli [9]; Escherichia coli, 25 μg/disc, read-out: Zone of inhibition: diameter) was 22.3 ± 1.77 mm. The zone of inhibition at 25 µg/disc (Staphylococcus epidermis [10]; Staphylococcus, 25 μg/disc, read-out: Zone of inhibition: diameter) was 23.3 mm.
Work on `O=C1C(=Cc2ccccc2F)CNCC12C(c1ccccc1F)C1CSCN1C21C(=O)Nc2ccccc21` (stereo not drawn) [Compound 6b, spiro[5.3″ ]-oxindole-spiro-[6.2′]-6′-(2-fluorophenylmethylidene)tetrahydro-4′(1H)-pyridinone-7-(2-fluorophenyl)tetrahydro-1H-pyrrolo[1,2-c][1,3] thiazole] yielded an MBC (Escherichia coli [1]) of 58.55 µg/mL (≈ 111 µM), an MIC (Escherichia coli [1]) of 29.25 µg/mL (≈ 55.2 µM) and an MBC (Pseudomonas aeruginosa [2]) of 117.15 µg/mL (≈ 221 µM). It also gave an MIC (Pseudomonas aeruginosa [2]) of 58.55 µg/mL (≈ 111 µM), an MBC (Salmonella typhi [3]) of 117.15 µg/mL (≈ 221 µM) and an MIC (Salmonella typhi [3]) of 58.55 µg/mL (≈ 111 µM). The MBC (Staphylococcus aureus [4]) was 117.15 µg/mL (≈ 221 µM), the MIC (Staphylococcus aureus [4]) was 68.55 µg/mL (≈ 129 µM) and the MBC (Staphylococcus epidermis [5]) was 58.55 µg/mL (≈ 111 µM). The MIC (Staphylococcus epidermis [5]) was 29.25 µg/mL (≈ 55.2 µM), the “Zone of inhibition: diameter” value (Pseudomonas aeruginosa [6]; 120 μg/disc) was 16.3 ± 1.63 mm and the “Zone of inhibition: diameter” value (Salmonella typhi [7]; 120 μg/disc) was 16.3 ± 1.08 mm. The “Zone of inhibition: diameter” value (Staphylococcus aureus [8]; 120 μg/disc) was 17.6 ± 1.47 mm, the “Zone of inhibition: diameter” value (Escherichia coli [9]; 120 μg/disc) was 18.6 ± 1.47 mm and the “Zone of inhibition: diameter” value (Staphylococcus epidermis [10]; 120 μg/disc) was 19.3 mm.
